Results reported in patent US10532068B2, “Dual molecular delivery of oligonucleotides and peptide containing conjugates” (Merck Sharp & Dohme Corp., priority 2013, dated 2020).
Where no end group is shown, it is not given here. [ ]: non-standard residue; d: D form. TGN = not defined here

System: CTNNB1
Experiment: In vivo evaluation in mice: liver mRNA knockdown measurement (TaqMan qPCR)
Set-up: species or system CD-1 mice
Settings: mice
Procedure: Female CD-1 mice (Charles River) were injected in accordance with either a sequential dosing paradigm or a co-dosing paradigm. In the sequential dosing paradigm, the targeted siRNA (SCE) is dosed at t=0 and the targeted peptide is separately dosed up to 2 hr before the SCE (−2 hr) or up to 24 hr after the SCE (+24 hr). In the co-dosing paradigm, the SCE and peptides are co-formulated and dosed together in the same formulation as a single injection at t=0. The mice were dosed either by intravenous (i.v.) or subcutaneous (s.c.) injection of SCE and peptide. For the i.v. doses, the compounds were injected into the tail vein of the mice. For the s.c. doses, the compounds were injected in the subcutaneous space on the back of the mouse between the shoulder blades. At the indicated harvest times (measured from t=0 when the siRNA was dosed, regardless of when the peptide was dosed), the animals were sacrificed and 3 mm liver punches were collected, preserved in RNAlater (Ambion), and stored at 4° C. Separate 5 mm liver punches were collected, placed in 96-well plates, frozen on dry ice, and stored at −80° C. until use.
The 3 mm liver punches were removed from RNAlater and homogenized in Trizol (Invitrogen) using a bead mill tissue lyser (Qiagen); disruption was performed for two 5-minute cycles at 30 Hz. RNA extraction was performed using 1-bromo-2-chloropropane (Acros Organics) and total RNA was isolated from the aqueous phase using the MagMax RNA isolation method (Ambion). […] TaqMan qPCR analysis was performed with an ABI 7900 Real-Time PCR System using TaqMan Fast Advanced Master Mix (Applied Biosystems). All TaqMan probes and primers for CTNNB1 and PPIB (housekeeping gene) were purchased from Applied Biosystems as pre-validated gene expression assays. Results are calculated by the comparative Ct method, where the difference between the CTNNB1 Ct value and the PPIB Ct value (ΔCt) is calculated and then further normalized relative to the PBS control by taking a second difference (ΔΔCt), as described previously (1).

[1] = Table 6, sequential, peptide IV 15 min after siRNA IV, TGN-L-siRNA-III 0.25 mg/kg, peptide 10 mg/kg
[2] = Table 6, sequential, peptide IV 15 min after siRNA IV, TGN-L-siRNA-III 0.5 mg/kg, peptide 5 mg/kg
[3] = Table 6, sequential, peptide IV 15 min after siRNA IV, TGN-L-siRNA-III 0.25 mg/kg, peptide 5 mg/kg
[4] = Table 6, sequential, peptide IV 15 min after siRNA IV, TGN-L-siRNA-II 0.25 mg/kg, peptide 1 mg/kg
[5] = Table 6, sequential, peptide IV 15 min after siRNA IV, TGN-L-siRNA-II 0.25 mg/kg, peptide 3 mg/kg
[6] = Table 6, sequential, peptide IV 15 min after siRNA IV, TGN-L-siRNA-III 0.5 mg/kg, peptide 2 mg/kg
[7] = Table 6, sequential, peptide IV 15 min after siRNA IV, TGN-L-siRNA-III 0.5 mg/kg, peptide 10 mg/kg

TGN-S-S-SEQ ID NO: 1652 (D) ([dC](TGN)[dE][dL][dF][dE][dE][dL][dA][dE][dL][dL][dW][dE]G[dL][dE][dN][dL][dI][dD][dW]G[dN][dS]; reading uncertain; also: Cys disulfide-linked to TGN peptide; listed as Homo sapiens)
In vivo mRNA knockdown (%) [1]: 37%

TGN-S-S-SEQ ID NO: 1653 (D) ([dC](TGN)G[dL][dF]G[dE][dI][dA][dE][dL][dI][dW][dE]G[dL][dE][dN][dL][dI][dD][dW]G[dN]G; reading uncertain; also: Cys disulfide-linked to TGN peptide; listed as Homo sapiens)
In vivo mRNA knockdown (%) [1]: 63% | In vivo mRNA knockdown (%) (Table 6, sequential, peptide IV 15 min after siRNA IV, TGN-L-siRNA-III 0.25 mg/kg, peptide 50 mg/kg): 69%

TGN-S-S-SEQ ID NO: 1712 (L) (C(TGN)FLGALWKALSELLKNLIDWWNG; reading uncertain; also: Cys disulfide-linked to TGN peptide; listed as Homo sapiens)
In vivo mRNA knockdown (%) [2]: 34%

TGN-S-S-SEQ ID NO: 1713 (L): TGN-S-S-peptide, peptide CGL-R6H-GELEEL-S7H-EEGLENLIDWWNG (STAPLED)
In vivo mRNA knockdown (%) (Table 6, sequential, peptide IV 15 min after siRNA IV, TGN-L-siRNA-III 0.25 mg/kg, peptide 2 mg/kg): 0% | In vivo mRNA knockdown (%) [1]: 2%

TGN-S-S-SEQ ID NO: 1716 (L) (C(TGN)GLFEELAGLLWHGLKNLIDWWNG; reading uncertain; also: Cys disulfide-linked to TGN peptide; listed as Homo sapiens)
In vivo mRNA knockdown (%) [2]: 39%

TGN-S-S-SEQ ID NO: 1717(L): TGN-S-S-peptide, peptide CFLGALFHALSHLLENLIDWWNG (C(TGN)FLGALFHALSHLLENLIDWWNG; reading uncertain; also: Cys disulfide-linked to TGN peptide; listed as Homo sapiens)
In vivo mRNA knockdown (%) [2]: 16%

TGN-S-S-SEQ ID NO: 1719 (L) (C(TGN)GLFAEIEELIWEGLENLIDWWNQ; reading uncertain; also: Cys disulfide-linked to TGN peptide; listed as Homo sapiens)
In vivo mRNA knockdown (%) [3]: 25%

TGN-S-S-SEQ ID NO: 1725 (L) (C(TGN)SSAWWSYWPPVA; reading uncertain; also: Cys disulfide-linked to TGN peptide; listed as Homo sapiens)
In vivo mRNA knockdown (%) [1]: 19%

TGN-S-S-SEQ ID NO: 1726(D) ([dC](TGN)G[dL][dF][dA][dV][dI][dK][dK][dV][dA][dS][dV][dI]GG[dL]; reading uncertain; also: Cys disulfide-linked to TGN peptide; listed as Homo sapiens)
In vivo mRNA knockdown (%) [1]: 23%

TGN-S-S-SEQ ID NO: 1727 (D) ([dC](TGN)G[dL][dF][dA][dV][dI][dH][dH][dV][dA][dS][dV][dI]GG[dL]; reading uncertain; also: Cys disulfide-linked to TGN peptide; listed as Homo sapiens)
In vivo mRNA knockdown (%) [1]: 26%

TGN-S-S-SEQ ID NO: 1728(D) ([dC](TGN)G[dL][dF][dA][dV][dI][dE][dE][dV][dA][dS][dV][dI]GG[dL]; reading uncertain; also: Cys disulfide-linked to TGN peptide; listed as Homo sapiens)
In vivo mRNA knockdown (%) [1]: 23%

TGN-S-S-SEQ ID NO: 1729 (L) (C(TGN)GPSQPTYPGDDAPVRDLIRFYRDLRRYLNVVTRHRY; reading uncertain; also: Cys disulfide-linked to TGN peptide; listed as Homo sapiens)
In vivo mRNA knockdown (%) [1]: 10%

TGN-S-S-SEQ ID NO: 1730 (D): TGN-S-S-peptide, peptide CGIGAVLHVLTTGLPALISWIKRKRQQ
In vivo mRNA knockdown (%) [1]: 43%

TGN-S-S-SEQ ID NO: 1731(D): TGN-S-S-peptide, peptide CGIGAVLHVLTTGLPALISWIHHHHQQ
In vivo mRNA knockdown (%) [1]: 30%

TGN-S-S-SEQ ID NO: 1732 (D): TGN-S-S-peptide, peptide AC-GIFEAIAGLLKINFKC
In vivo mRNA knockdown (%) [3]: 35%

TGN-S-S-SEQ ID NO: 1733 (D): TGN-S-S-peptide, peptide AC-GLFGALAEALAEALAEHLAEALAEALEALAAGGSC
In vivo mRNA knockdown (%) [4]: 60% | In vivo mRNA knockdown (%) [5]: 75% | In vivo mRNA knockdown (%) (Table 6, sequential, peptide IV 15 min after siRNA IV, TGN-L-siRNA-II 0.25 mg/kg, peptide 10 mg/kg): 58% | In vivo mRNA knockdown (%) (Table 6, sequential, peptide IV 15 min after siRNA IV, TGN-L-siRNA-II 0.25 mg/kg, peptide 50 mg/kg): 50% | In vivo mRNA knockdown (%) [3]: 73% | In vivo mRNA knockdown (%) (Table 7, TGN-L-siRNA-II 0.25 mg/kg, peptide 3 mg/kg, Sequential dosing-IV (peptide 15 min after siRNA)): 69% | In vivo mRNA knockdown (%) (Table 7, TGN-L-siRNA-II 0.25 mg/kg, peptide 3 mg/kg, Sequential dosing-SC (peptide 15 min after siRNA)): 47% | In vivo mRNA knockdown (%) (Table 7, TGN-L-siRNA-II 0.25 mg/kg, peptide 10 mg/kg, Sequential dosing-IV (peptide 15 min after siRNA)): 58% | In vivo mRNA knockdown (%) (Table 7, TGN-L-siRNA-II 0.25 mg/kg, peptide 10 mg/kg, Sequential dosing-SC (peptide 15 min after siRNA)): 67%

TGN-S-S-SEQ ID NO: 1734 (D): TGN-S-S-peptide, peptide AC-GLFEAIEGFIENGWEGLAELAEALEALAAGGSC
In vivo mRNA knockdown (%) [3]: 61%

TGN-S-S-SEQ ID NO: 1738 (D) (G[dL][dF]G[dE][dI][dE][dE][dL][dI][dE][dE]G[dL][dE][dN][dL][dI][dD][dW]G[dN]G[dL][dA][dE][dL][dA][dE][dA][dL][dE][dA][dL][dA][dA]GG[dS][dC]; not fully specified; also: disulfide to TGN peptide via C-terminal Cys; listed as Homo sapiens)
In vivo mRNA knockdown (%) [4]: 25% | In vivo mRNA knockdown (%) [5]: 44%

TGN-S-S-SEQ ID NO: 1740 (D): TGN-S-S-peptide, peptide GLFEAIEGFIENGWEGLAELAEALEALAAGGSC (G[dL][dF][dE][dA][dI][dE]G[dF][dI][dE][dN]G[dW][dE]G[dL][dA][dE][dL][dA][dE][dA][dL][dE][dA][dL][dA][dA]GG[dS][dC]; not fully specified; also: disulfide to TGN peptide via C-terminal Cys; listed as Homo sapiens)
In vivo mRNA knockdown (%) [4]: 23% | In vivo mRNA knockdown (%) [5]: 42%

TGN-S-S-SEQ ID NO: 1740 (L): TGN-S-S-peptide, peptide GLFEAIEGFIENGWEGLAELAEALEALAAGGSC (GLFEAIEGFIENGWEGLAELAEALEALAAGGSC(TGN); reading uncertain; also: TGN attached via disulfide (S-S); listed as Homo sapiens)
In vivo mRNA knockdown (%) [5]: 20%

TGN-S-S-SEQ ID NO: 1741(L): TGN-S-S-peptide, peptide GLFGALAEALAEALAEHLAEALAEALEALAAGGSC (GLFGALAEALAEALAEHLAEALAEALEALAAGGSC(TGN); reading uncertain; also: TGN attached via disulfide (S-S); listed as Homo sapiens)
In vivo mRNA knockdown (%) [5]: 24%

TGN-S-S-SEQ ID NO: 1744 (D) ([dC][dE][dE][dN][dW][dI]G[dL][dF]GGG[dN][dI][dW][dE][dE][dE][dE][dI][dL][dD][dL][dL]; also: disulfide to TGN peptide via N-terminal Cys; listed as Homo sapiens)
In vivo mRNA knockdown (%) [6]: 28% | In vivo mRNA knockdown (%) [7]: 33%

TGN-S-S-SEQ ID NO: 1746 (D): TGN-S-S-peptide, peptide CEALFGKINAIFIGKL ([dC][dE][dA][dL][dF]G[dK][dI][dN][dA][dI][dF][dI]G[dK][dL]; also: disulfide to TGN peptide via N-terminal Cys; listed as Homo sapiens)
In vivo mRNA knockdown (%) [6]: 31% | In vivo mRNA knockdown (%) [7]: 25%
